Measurements taken from ChEMBL document CHEMBL1128564, “Inhibition of monoamine oxidase-B by 5H-indeno[1,2-c]pyridazines: biological activities, quantitative structure-activity relationships (QSARs) and 3D-QSARs” (J Med Chem, 1995).
pIC50: −log10 of the molar value.

What was measured:
[1] = target: T1, Amine oxidase [flavin-containing] A (Rattus norvegicus, UniProt P21396); assay: Ability to inhibit Monoamine oxidase A enzyme
T1 sequence (P21396 whole entry): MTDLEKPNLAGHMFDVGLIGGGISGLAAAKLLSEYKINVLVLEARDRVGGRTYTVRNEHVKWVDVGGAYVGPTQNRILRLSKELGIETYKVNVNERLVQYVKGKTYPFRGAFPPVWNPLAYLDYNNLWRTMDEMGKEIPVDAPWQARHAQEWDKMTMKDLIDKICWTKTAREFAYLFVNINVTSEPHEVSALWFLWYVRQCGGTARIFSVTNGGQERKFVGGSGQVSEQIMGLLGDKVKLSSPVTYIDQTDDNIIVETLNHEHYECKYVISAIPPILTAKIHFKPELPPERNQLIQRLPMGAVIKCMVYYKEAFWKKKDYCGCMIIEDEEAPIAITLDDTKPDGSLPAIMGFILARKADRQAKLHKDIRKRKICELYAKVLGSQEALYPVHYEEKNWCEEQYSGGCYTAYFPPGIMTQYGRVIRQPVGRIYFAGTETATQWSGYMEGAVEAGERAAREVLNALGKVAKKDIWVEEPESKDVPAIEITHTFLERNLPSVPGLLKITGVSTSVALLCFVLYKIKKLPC

[2] = target: T2, Amine oxidase [flavin-containing] B (Rattus norvegicus, UniProt P19643); assay: Ability to inhibit Monoamine oxidase B enzyme
T2 sequence (P19643 whole entry): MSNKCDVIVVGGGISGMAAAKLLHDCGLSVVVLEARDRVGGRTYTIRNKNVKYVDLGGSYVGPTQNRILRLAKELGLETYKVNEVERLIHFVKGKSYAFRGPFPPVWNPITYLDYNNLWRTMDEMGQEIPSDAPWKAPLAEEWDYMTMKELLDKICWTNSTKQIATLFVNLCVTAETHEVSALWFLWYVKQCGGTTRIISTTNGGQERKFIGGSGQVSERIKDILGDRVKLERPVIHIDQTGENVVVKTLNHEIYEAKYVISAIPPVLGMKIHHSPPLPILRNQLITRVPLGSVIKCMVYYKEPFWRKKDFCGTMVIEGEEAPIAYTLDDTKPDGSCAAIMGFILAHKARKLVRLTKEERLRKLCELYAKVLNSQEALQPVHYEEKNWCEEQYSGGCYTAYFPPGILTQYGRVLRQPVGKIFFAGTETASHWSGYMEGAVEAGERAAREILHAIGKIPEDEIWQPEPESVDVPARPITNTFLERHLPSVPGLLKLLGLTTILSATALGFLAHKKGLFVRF

SMILES	pIC50 [1]	pIC50 [2]
O=C1c2ccccc2-c2nnc(-c3cccc([N+](=O)[O-])c3)cc21	6.00	< 6.30
Cc1c(-c2ccccc2)nnc2c1C(=O)c1ccccc1-2	4.00	< 4.00
O=C1c2ccccc2-c2nnc(-c3ccccc3[N+](=O)[O-])cc21	4.00	
O=C1c2ccccc2-c2nnc(-c3ccccc3C(F)(F)F)cc21	5.00	5.00
O=C1c2ccccc2-c2nnccc21	4.01	4.56
O=C1c2ccccc2-c2nnc(-c3ccc([N+](=O)[O-])cc3)cc21	4.60	
COc1ccc(-c2cc3c(nn2)-c2ccccc2C3=O)cc1	5.00	
COc1cccc(-c2cc3c(nn2)-c2ccccc2C3=O)c1	4.30	
COc1ccc2c(c1)C(=O)c1cc(-c3cccc(C(F)(F)F)c3)nnc1-2	5.30	
COc1ccccc1-c1cc2c(nn1)-c1ccccc1C2=O	4.30	< 4.30
O=C1c2ccccc2-c2nnc(/C=C/c3ccccc3)cc21	< 6.00	
O=C1c2ccccc2-c2nnc(-c3ccc(F)c(F)c3)cc21	6.00	
O=C(c1ccccc1)c1c(-c2ccccc2)nnc2c1C(=O)c1ccccc1-2	5.00	5.11
O=C(O)c1ccc(-c2cc3c(nn2)-c2ccccc2C3=O)cc1	4.00	4.00
COc1cc(-c2cc3c(nn2)-c2ccccc2C3=O)ccc1O	5.00	5.00
Cc1nnc2c(c1-c1ccccc1)C(=O)c1ccccc1-2	4.30	
O=C1c2ccccc2-c2nnc(CCc3ccccc3)cc21	4.30	
O=C(c1ccccc1)c1cc2c(nn1)-c1ccccc1C2=O	< 4.30	4.79
O=C1c2ccccc2-c2nnc(-c3cccc(O)c3)cc21	6.00	< 6.00
CC(=O)Nc1ccc(-c2cc3c(nn2)-c2ccccc2C3=O)cc1	< 5.00	< 5.00
Cc1nnc2c(c1Cc1ccccc1)C(=O)c1ccccc1-2	4.00	4.08
O=C1c2ccccc2-c2nnc(-c3cccnc3)cc21	< 4.60	< 4.60

SMILES	pIC50 [1]	pIC50 [2]
O=C1c2ccccc2-c2nnc(-c3ccccn3)cc21	4.60	< 4.60
O=C1c2ccccc2-c2nnc3ccc4ccccc4c3c21	5.00	5.00
COc1ccc(-c2cc3c(nn2)-c2ccccc2C3=O)cc1OC	6.00	6.00
O=C1c2ccccc2-c2nnc(-c3cc(Cl)cc(Cl)c3)cc21	6.00	6.15
CCCCOc1ccc(-c2cc3c(nn2)-c2ccccc2C3=O)cc1	5.00	5.00
O=C1c2ccccc2-c2nnc(-c3ccc(Cl)cc3)cc21	< 5.30	
O=C1c2ccccc2-c2nnc(-c3ccccc3Cl)cc21	< 4.30	
O=C1c2ccccc2-c2nnc3c(c21)-c1ccccc1CC3	4.30	4.30
O=C1c2ccccc2-c2nnc(-c3cccc(Br)c3)cc21	6.00	
O=C1c2ccccc2-c2nnc3ccccc3c21	6.00	6.00
O=C1c2ccccc2-c2nnc(-c3cccc(F)c3)cc21	5.00	
O=C1c2ccccc2-c2nnc(-c3ccc(O)cc3)cc21	< 4.30	
O=C1c2ccccc2-c2nnc(-c3ccccc3O)cc21	6.00	< 6.00
O=C1c2ccccc2-c2nnc(-c3cccc(C(F)(F)F)c3)cc21	< 5.30	
O=C1c2ccccc2-c2nncc(-c3ccccc3)c21	4.46	4.03
O=C1c2ccccc2-c2nnc(-c3ccccc3F)cc21	< 4.70	4.74
O=C1c2ccccc2-c2nnc(-c3ccc4ccccc4c3)cc21	5.00	
O=C1c2ccccc2-c2nnc(-c3ccc(C(F)(F)F)cc3)cc21	6.00	
O=C1c2ccccc2-c2nnc(-c3ccccc3)c(Cc3ccccc3)c21	< 5.00	
O=C(O)CCc1cc2c(nn1)-c1ccccc1C2=O	4.00	4.00
c1ccc(-c2cc3c(nn2)-c2ccccc2C3)cc1		4.63
O=C1c2ccccc2-c2nnc(Cc3ccccc3)cc21	4.00	

SMILES	pIC50 [1]	pIC50 [2]
O=C1c2ccccc2-c2nnc(-c3ccc(Br)cc3)cc21	6.00	
N#Cc1cccc(-c2cc3c(nn2)-c2ccccc2C3=O)c1	< 5.00	
O=C1c2ccccc2-c2nnc3c(c21)CCCC3	4.30	4.00
N#Cc1ccc(-c2cc3c(nn2)-c2ccccc2C3=O)cc1	4.60	
O=C1c2ccccc2-c2nnc(C(F)(F)F)cc21	4.60	< 4.60
O=C1c2cc(O)ccc2-c2nnc(-c3cccc(C(F)(F)F)c3)cc21	5.30	5.29
O=C1c2ccccc2-c2nnc(-c3ccc(N4CCCCC4)cc3)cc21	6.00	6.00
Cc1ccccc1-c1cc2c(nn1)-c1ccccc1C2=O	5.00	
CC(=O)c1ccc(-c2cc3c(nn2)-c2ccccc2C3=O)cc1	< 5.00	
O=C1c2ccccc2-c2nnc(-c3cccc(Cl)c3)cc21	< 5.30	
O=C1c2ccccc2-c2nnc(-c3cccs3)cc21	6.00	6.00
Nc1cccc(-c2cc3c(nn2)-c2ccccc2C3=O)c1	4.59	
O=C1c2ccccc2-c2nncc(Cc3ccccc3)c21	4.30	4.30
O=C1c2ccccc2-c2nnc3c(c21)CCc1ccccc1-3	4.30	4.30
O=C1c2ccccc2-c2nnc(-c3cccc4ccccc34)cc21	5.00	< 5.30
O=C1c2ccccc2-c2nnc(-c3ccc(F)cc3)cc21	4.51	
Cc1cc2c(nn1)-c1ccccc1C2=O	< 4.00	
O=C1c2ccccc2-c2nnc(-c3cc(C(F)(F)F)cc(C(F)(F)F)c3)cc21	6.00	< 5.70
Nc1ccc(-c2cc3c(nn2)-c2ccccc2C3=O)cc1	4.43	4.61
CCOC(=O)c1c(-c2ccccc2)nnc2c1C(=O)c1ccccc1-2	< 4.30	5.28
O=C1c2ccccc2-c2nnc(-c3ccco3)cc21	< 4.30	
O=C1c2ccccc2-c2nnc(-c3ccccc3)cc21	4.60	
